From US10590116B2, “3-indolyl furanoids as inhibitors of matrix metalloproteinase-9 for prevention of gastric ulcer and other inflammatory diseases” (Council of Scientific & Industrial Research, priority 2017, dated 2020) come the findings set out here.

The test system of assay [1] is apoptosis of gastric mucosa. The assay is described as follows: TUNEL assay of gastric tissue sections. Type of assay: in vivo. The settings on record: indomethacin ulcerated mice. From the text:
To understand the fine information about the physical condition (the level of damage and/or intactness) of cells tissues under observation, different tissue samples were fixed in 10% formalin and embedded in paraffin. Tissue sections were deparaffinized with xylene and rehydrated with descending alcohol series. The sections were cut using microtome, and stained with hematoxylin and eosin, or subjected to Terminal deoxynucleotidyl transferase-mediated dUTP Nick End Labeling (TUNEL) assay by using a in situ apoptosis detection kit. Fixation, permeabilization, and staining were carried out in exact parallel to ensure comparative significance among normal, ulcerated and compound 5 treated groups. […] Images at 10× and 40× magnification were captured using Camedia software (E-20P 5.0 Megapixel) and processed under Adobe Photoshop version 7.0 (FIG. 1B).
Tissue sections were stained with hematoxylin and eosin stain. Fixation, permeabilization, and staining were carried out in parallel in normal, ulcerated and compound 5 treated groups to ensure comparative significance among different treatment. TUNEL assay is used for detection and quantification of apoptosis in gastric tissues, based on labelling of DNA strand breaks. Terminal deoxynucleotidyl transferase-mediated dUTP Nick End Labeling (TUNEL) assay was performed by using an in situ apoptosis detection kit. […]

For a further assay, the system named is protein carbonyl. The experiment in a line: Measurement of protein carbonyl in gastric tissue homogenate. Type of assay: in vivo. The settings on record: 50 mg/kg bw, ulcerated mice. As for the experimental part:
Protein carbonyl groups are considered as biomarkers of oxidative stress. Protein oxidation was measured as carbonyl content in the low speed supernatant of the gastric tissue homogenate. The stomach from control, stress ulcerated, and compound 5 treated (50 mg/kg bw) mice were homogenized in 50 mM sodium phosphate buffer pH 7.4 in a Potter-Elvehjem glass homogenizer for 2 min to get 20% homogenate. After centrifugation at 600 g for 10 min, the proteins from 1.0 mL of the supernatant were precipitated with 10% trichloroacetic acid and allowed to react with 0.5 mL of 10 mM 2,4-dinitrophenyl hydrazine for 1 h. After precipitation with 20% trichloroacetic acid, proteins were washed thrice with a mixture of ethanol-ethyl acetate (1:1), dissolved in 1.0 mL of a solution containing 6 M guanidine HCl in 20 mM potassium phosphate adjusted to pH 2.3 with trifluroacetic acid, and centrifuged. The absorbance of the supernatant was read at 362 nm for carbonyl content (E=22,000/M/cm).
The fundic stomach homogenate was used for measurement of protein carbonyl formation as nmol/mg protein.

In the next assay the test system is Myeloperoxidase (MPO). The experiment in a line: Myeloperoxidase assay in gastric tissue. Conditions: ulcerated mice, gastric tissue homogenate. The class given is in vivo. As for the experimental part:
To understand the anti-inflammatory activity of compound 5, the inventors performed Myeloperoxidase (MPO) Assay in mouse of control, diseased and treated. Myeloperoxidase (MPO) activity in the mice gastric tissues was measured by calorimetric assay using guaiacol as the substrate. Briefly, gastric tissue homogenate prepared in 5 mM phosphate buffer was added to 1 mL of reaction buffer containing 0.5 mM H2O2 and 0.4 M guaiacol in 50 mM phosphate buffer, pH 7.4. The changes in the optical density per minute for tetraguaiacol were measured at 470 nm in a Shimadzu spectrophotometer. The results were expressed in units/gram gastric tissue (ε=26.6/mM/cm).
Myeloperoxidase (MPO) activity in the mouse gastric tissue homogenate was assayed colorimetrically using guaiacol and H2O2.

A further assay concerns the target T1, MMP-9 (Mus musculus, UniProt P41245).
T1 construct: from tissue; host or cells: mouse stomach (gastric tissue) PBS / Triton X-100 extracts
The assay is described as follows: Gelatin zymography of gastric tissue extract, MMP-9. Conditions: pretreatment before indomethacin. Type of assay: in vivo, mice. As for the experimental part: The whole stomach (including fundic, body and pyloric parts) was washed with saline and used for extraction. Stomach except connective tissue layer (named as gastric tissue) were suspended in 10 mM phosphate buffer saline (PBS) containing protease inhibitors, minced and incubated for 10 min at 4° C. After centrifugation at 12,000 g for 15 min, the supernatant was collected as PBS extracts. The pellet was then extracted in lysis buffer (10 mM Tris-HCl pH 8.0, 150 mM NaCl, 1% Triton X-100 and protease inhibitors) and centrifuged at 12,000 g for 15 min to obtain TX extracts. Both PBS and TX extracts were preserved at −70° C. and used in future studies. Proteins were estimated either by Lowry method or by Bradford assay.
For the analysis of MMP-9 activity, tissue extracts were electrophoresed in 8% SDS-PAGE containing 1 mg/mL gelatin under nonreducing conditions. Equal amounts of tissue extracts (70 μg of total protein) were loaded in all the lanes. […] Quantification of zymographic bands was performed using densitometry linked to proper software (Lab Image, Kapelan Gmbh, Leipzig, Germany). […]
Tissue extracts were electrophoresed in SDS-PAGE containing gelatin under nonreducing conditions. […] Gelatinolytic activity came as negative staining and was quantified by Lab Image software.

T1 sequence (P41245 108-730): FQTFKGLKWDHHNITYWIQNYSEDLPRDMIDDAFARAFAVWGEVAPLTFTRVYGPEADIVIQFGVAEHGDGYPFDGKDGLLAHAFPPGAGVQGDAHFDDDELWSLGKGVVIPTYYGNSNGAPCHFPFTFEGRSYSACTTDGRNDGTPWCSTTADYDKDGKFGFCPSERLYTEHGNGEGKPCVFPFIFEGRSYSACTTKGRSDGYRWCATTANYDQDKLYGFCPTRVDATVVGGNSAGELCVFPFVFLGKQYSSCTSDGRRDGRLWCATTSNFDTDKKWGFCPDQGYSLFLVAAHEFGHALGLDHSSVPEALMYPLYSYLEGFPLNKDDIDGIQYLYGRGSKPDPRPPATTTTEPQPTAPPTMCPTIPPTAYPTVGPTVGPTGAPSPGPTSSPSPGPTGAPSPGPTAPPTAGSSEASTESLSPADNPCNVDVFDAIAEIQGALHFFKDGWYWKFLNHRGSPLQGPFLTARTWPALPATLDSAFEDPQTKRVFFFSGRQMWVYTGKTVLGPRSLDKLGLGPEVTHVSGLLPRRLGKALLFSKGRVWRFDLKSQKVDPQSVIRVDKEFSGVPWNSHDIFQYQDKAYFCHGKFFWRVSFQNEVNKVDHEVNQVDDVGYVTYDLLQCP

Consider `COc1cccc2[nH]cc(-c3cc(-c4ccccc4)oc3-c3ccccc3)c12` [compound 5, 4-methoxy-3-(2,5-diphenylfuran-3-yl)-1H-indole], for which, in assay [1], the “apoptosis of gastric mucosa (TUNEL)” value is listed as “suppression of apoptosis”. In addition, the figures for the Protein carbonylation with protein carbonyl and in the assay with protein carbonyl (listed as Compound 5) were 1.58±0.18 nmol/mg protein and 1.58 ± 0.18 nmol/mg protein, respectively. Moreover, the Myeloperoxidase amounted to 9.13±0.33 units/gram tissue in the assay on Myeloperoxidase (MPO) and 9.13 ± 0.33 units/gram tissue in the assay on Myeloperoxidase (MPO) (listed as Compound 5). Further, the “MMP-9 activity in gastric tissue extract” value on MMP-9 is listed as “inhibits MMP-9 activity in gastric mucosa”; on MMP-9 (listed as Compound 5) it was “inhibited MMP-9 activity very significantly”.
